# According to patent US20250074910A1, “MENIN INHIBITOR AND USE THEREOF” (HITGEN INC., priority 2021, published 2025):
# Legend:
# [1] = Pharmacokinetics test in mouse; format: in vivo, ICR mice; settings: mice, p.o. 10 mg/kg; for AUC(0-t) / half-life / Cmax: male, ICR, mouse, plasma, po, 10 mg/kg; for Cmax: read-out: Cmax; for F, %: 1 mg/kg for intravenous injection
# Summary of the method: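 Fasted male ICR mice dosed with compound in saline with 1.5 eq HCl, 1 mg/kg i.v. or 10 mg/kg oral gavage (6 mice each). Plasma sampled 5 min–24 h, measured by LC-MS/MS; t½, Cmax, AUC, CL and F% by non-compartmental analysis, mean±SD.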
# MV4-11 = test: Cell proliferation inhibition (CellTiter-Glo), MV4-11; format: cell-based; settings: Homo sapiens, MV4-11, 72 h, MV4-11 cells
# Summary of the method: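 Cells plated at 5,000-20,000/well, treated with compound at 1 nM to 10 μM final, cultured 72-168 h at 37 °C, 5% CO2. Viability measured by CellTiter-Glo luminescence after 10 min at room temperature; IC50 from curve fitting.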
# [2] = target: Menin/MLL-4-43 peptide interaction (Homo sapiens (Human), UniProt O00255); test: Menin-MLL interaction inhibitory activity assay (fluorescence polarization competition); format: binding; settings: FITC-MLL4-43-peptide, Menin recombinant protein
# Sequence of Menin/MLL-4-43 peptide interaction (O00255 whole entry, species assumed): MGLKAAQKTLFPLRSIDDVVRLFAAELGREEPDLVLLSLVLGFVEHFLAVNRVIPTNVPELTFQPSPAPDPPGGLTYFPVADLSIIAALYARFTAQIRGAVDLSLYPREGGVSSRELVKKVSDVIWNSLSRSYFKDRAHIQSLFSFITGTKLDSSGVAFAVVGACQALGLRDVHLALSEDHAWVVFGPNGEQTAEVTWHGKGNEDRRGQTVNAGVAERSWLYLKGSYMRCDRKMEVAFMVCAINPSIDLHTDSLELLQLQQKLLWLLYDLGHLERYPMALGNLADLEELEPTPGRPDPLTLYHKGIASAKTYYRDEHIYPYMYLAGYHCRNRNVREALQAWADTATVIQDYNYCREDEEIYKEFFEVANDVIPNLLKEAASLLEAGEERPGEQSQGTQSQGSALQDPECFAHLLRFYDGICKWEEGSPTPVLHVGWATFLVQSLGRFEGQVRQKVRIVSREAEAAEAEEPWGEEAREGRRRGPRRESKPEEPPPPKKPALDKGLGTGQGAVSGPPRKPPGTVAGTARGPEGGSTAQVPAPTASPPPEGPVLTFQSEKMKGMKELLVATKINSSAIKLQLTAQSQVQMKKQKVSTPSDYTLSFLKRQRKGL
# Summary of the method: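 Menin (8 nM solution) was preincubated 15 min with compound, then FITC-MLL4-43 peptide (10 nM solution) was added and shaken for 60 min at 25 °C. The buffer was 50 mM Tris pH 7.5, 50 mM NaCl, 1 mM DTT. IC50 was derived from fluorescence polarization read at 485/520 nm.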
AUC(0-t) [1] [ng·h/mL],half-life [1] [h],Cmax [1] [ng/mL],"F, % [1] [%]",GI50 (MV4-11) [nM],IC50 [2] [nM],SMILES
6410,1.17,3030,60,56.6,34.7,"CC(C)N(C(=O)c1cc(F)ccc1Oc1nncnc1N1CC2(CCN(CC3CC4CCC3CC43CCC(=O)N3)CC2)C1)C(C)C (single isomer, unassigned) [Example 15-1a]"
3220,1.12,2120,56,13.8,5,CCN(C(=O)c1cc(F)ccc1Oc1cncnc1N1CC2(CCN(C[C@H]3CC[C@]4(CC3)CC(COC)(COC)C(=O)N4)CC2)C1)C(C)C [Example 17]
2180,1.88,919,84,14.2,6,COCC1(COC)C[C@]2(CC[C@@H](CN3CCC4(CC3)CN(c3ncnnc3Oc3ccc(F)cc3C(=O)N(C(C)C)C(C)C)C4)CC2)NC1=O [Example 20]
5060,1.06,2260,67,53.8,16.3,COC[C@H]1C[C@]2(CC[C@@H](CN3CCC4(CC3)CN(c3ncnnc3Oc3ccc(F)cc3C(=O)N(C(C)C)C(C)C)C4)CC2)NC1=O [Example 38-1]
1980,0.83,824,55,13.1,2.8,COC[C@@H]1C[C@]2(CC[C@@H](CN3CCC4(CC3)CN(c3ncnnc3Oc3ccc(F)cc3C(=O)N(C(C)C)C(C)C)C4)CC2)NC1=O [Example 38-2]
